The source of these data is patent publication US12180226B2, “Spirotricycle RIPK1 inhibitors and methods of uses thereof” (Merck Sharp & Dohme LLC, priority 2021, dated 2024).

The assay concerns the target RIPK1 (recombinant GST-RIPK1 kinase domain, residues 1-327) (Homo sapiens (Human), UniProt Q13546). Put plainly: RIPK1-ADP-Glo Enzymatic Assay. The format is biochemical. The settings on record: ADP-Glo; 25 nM GST-RIPK1, 300 μM ATP; assay lower limit ~25 nM; read-out: RIPK1 V0 Ec50. The method in brief: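 Inhibition of ADP formation was measured after compound and enzyme (25 nM) were pre-incubated for 30 minutes at ambient temperature and the kinase reaction ran for 150 minutes at 300 μM ATP with dephosphorylated MBP substrate. EC50 values come from ten-point curves fitted non-linearly.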

Counter-ions that a name gives are not always drawn. Where only a bound is given, the exact number is not on record here.

Sequence of RIPK1 (recombinant GST-RIPK1 kinase domain, residues 1-327) (Q13546 1-327): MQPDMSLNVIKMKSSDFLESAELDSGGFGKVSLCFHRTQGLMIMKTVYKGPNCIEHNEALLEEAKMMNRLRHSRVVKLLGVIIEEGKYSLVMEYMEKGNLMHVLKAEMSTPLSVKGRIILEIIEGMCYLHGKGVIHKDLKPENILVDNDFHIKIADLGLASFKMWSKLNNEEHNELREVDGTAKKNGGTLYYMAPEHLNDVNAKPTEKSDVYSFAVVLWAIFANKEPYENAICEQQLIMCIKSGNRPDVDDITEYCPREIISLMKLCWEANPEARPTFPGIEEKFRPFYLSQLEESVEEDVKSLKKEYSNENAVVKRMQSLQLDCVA

Regarding `Cn1nccc1C(=O)N1CCC2(CC1)O[C@@H]1CC[C@@H](c3cc(F)cc(F)c3)N1C2=O` [Example 5.38, (5′S,7a′R)-5′-(3,5-difluoro-phenyl)-1-(1-methyl-1H-pyrazole-5-carbonyl)tetra-hydro-3′H-spiro[piperi-dine-4,2′-pyrrolo[2,1-b]oxazol]-3′-one], the EC50 stood at 103 nM.

On to `O=C(c1cnn2ccccc12)N1CCC2(CC1)O[C@@H]1CC[C@@H](c3cc(F)cc(F)c3)N1C2=O` [Example 5.72, (5′S,7a′R)-5′-(3,5-difluoro-phenyl)-1-(pyrazolo[1,5-a]-pyridine-3-carbonyl)tetra-hydro-3′H-spiro[piperidine-4,2′-pyrrolo[2,1-b]oxazol]-3′-one], for which the 50% effective concentration (EC50) was 30.8 nM.

For `O=C1N2[C@@H](CC[C@H]2c2cc(F)cc(F)c2)OC12CCN(c1ncnn3cccc13)CC2` [Example 13.11, (5′S,7a′R)-5′-(3,5-difluorophenyl)-1-(pyrrolo [2,1-f][1,2,4]triazin-4-yl)tetrahydro-3′H-spiro[piperidine-4,2′-pyrrolo[2,1-b]oxazol]-3′-one, TFA salt], the EC50 is < 25 nM.

With `C#Cc1ccnc(C(=O)N2CCC3(CC2)O[C@@H]2CC[C@@H](c4cc(F)cc(F)c4)N2C3=O)c1` [Example 5.43, (5′S,7a′R)-5′-(3,5-difluoro-phenyl)-1-(4-ethynylpico-linoyl)tetrahydro-3′H-spiro[piperidine-4,2′-pyrrolo[2,1-b]oxazol]-3′-one], the EC50 was < 25 nM.

In the case of `Cc1ccc(F)c(C(=O)N2CCC3(CC2)O[C@@H]2CC[C@@H](c4cc(F)cc(F)c4)N2C3=O)c1` [Example 6.5, (5′S,7a′R)-5′-(3,5-difluorophenyl)-1-(2-fluoro-5-methyl-benzene-1-carbonyl) tetrahydro-3′H-spiro [piperidine-4,2′-pyrrolo[2,1-b][1,3]oxazol]-3′-one], the EC50 is < 25 nM.

For the compound `Cc1nnc(C(=O)N2CCC3(CC2)O[C@@H]2CC[C@@H](c4cc(F)cc(F)c4)N2C3=O)o1` [Example 5.76, (5′S,7a′R)-5′-(3,5-difluoro-phenyl)-1-(5-methyl-1,3,4-oxadiazole-2-carbonyl)-tetrahydro-3′H-spiro[piperi-dine-4,2′-pyrrolo[2,1-b] [1,3]oxazol]-3′-one], the concentration for a half-maximal effect (EC50) was found to be 924 nM.

In the case of `O=C(c1nc(C2CC2)no1)N1CCC2(CC1)O[C@@H]1CC[C@@H](c3cc(F)cc(F)c3)N1C2=O` [Example 6.35], the concentration for a half-maximal effect (EC50) amounted to 89.7 nM.

Regarding `CN(C)c1cccc(C(=O)N2CCC3(CC2)O[C@@H]2CC[C@@H](c4ccccc4)N2C3=O)c1` [Example 6.144, (5′S,7a′R)-1-[3-(dimethylamino)ben-zene-1-carbonyl]-5′-phenyltetrahydro-3′H-spiro[piperidine-4,2′-pyrrolo[2,1-b][1,3]oxazol]-3'-one], the EC50 is < 25 nM.

Take `Cn1cc(C(=O)N2CCC3(CC2)O[C@@H]2CC[C@@H](c4cc(F)cc(F)c4)N2C3=O)cn1` [Example 5.53, (5′S,7a′R)-5′-(3,5-difluoro-phenyl)-1-(1-methyl-1H-pyrazole-4-carbonyl)tetra-hydro-3′H-spiro[piperidine-4,2′-pyrrolo[2,1-b]oxazol]-3′-one]: the EC50 amounted to 509 nM.

On to `Cc1nc(N2CCC3(CC2)O[C@@H]2CC[C@@H](c4ccccc4)N2C3=O)ncc1-c1ncnn1C` [Example 21.7, (5′S,7a′R)-1-[4-methyl-5-(1-methyl-1H-1,2,4-triazol-5-yl)pyrimidin-2-yl]-5′-phenyltetrahydro-3′H-spiro[piperidine-4,2′-pyrrolo[2,1-b][1,3]oxazol]-3′-one], for which the EC50 was determined as 181 nM.

In the case of `O=C1N2[C@@H](CC[C@H]2c2cc(F)cc(F)c2)OC12CCN(c1ccnc3ncnn13)CC2` [Example 4.83, (5′S,7a′R)-1-([1,2,4]triazolo[1,5-a]pyrimidin-7-yl)-5′-(3,5-difluorophenyl)tetrahydro-3′H-spiro[piperidine-4,2′-pyrrolo[2,1-b]oxazol]-3′-one, TFA salt], the EC50 is 363 nM.

`O=C1N2[C@@H](CC[C@H]2c2ccccc2)OC12CCN(c1cc(-c3cnn(C(F)F)c3)ncn1)CC2` [Example 10.2, (5′S,7a′R)-1-{6-[1-(difluoromethyl)-1H-pyrazol-4-yl]pyrimidin-4-yl}-5′-phenyltetrahydro-3′H-spiro[piperidine-4,2′-pyrrolo[2,1-b][1,3]oxazol]-3′-one]: the half-maximal effective concentration (EC50) is < 25 nM.

In the case of `CC(C)(C)OC(=O)c1ccc(N2CCC3(CC2)O[C@@H]2CC[C@@H](c4ccccc4)N2C3=O)nc1` [Example 4.198, tert-butyl 6-[(5′S,7a′R)-3′-oxo-5′-phenyltetrahydro-1H,3′H-spiro[piperidine-4,2′-pyrrolo[2,1-b] [1,3]oxazol]-1-yl]pyridine-3-carboxylate], the concentration for a half-maximal effect (EC50) came out at 249 nM.

For the compound `O=C(c1ccccc1)N1CCC2(CC1)CC1COC(c3cc(F)cc(F)c3)N1C2=O` (stereo not drawn) [Example 6.163, 1-(benzenecarbonyl)-3′-(3,5-difluoro-phenyl)dihydro-1′H,3′H,5′H-spiro [piperidine-4,6′-pyrrolo[1,2-c][1,3]oxazol]-5′-one], the EC50 was 29.1 nM.

In the case of `O=C1N2[C@@H](CC[C@H]2c2cc(F)cc(F)c2)OC12CCN(c1ccnc3ccnn13)CC2` [Example 4.6, (5′S,7a′R)-5′-(3,5-difluorophenyl)-1-(pyrazolo[1,5-a]pyrimidin-7-yl)tetrahydro-3′H-spiro[piperidine-4,2′-pyrrolo[2,1-b] [1,3]oxazol]-3′-one], the EC50 is < 25 nM.

In the case of `O=C1N2[C@@H](CC[C@H]2c2ccccc2)OC12CCN(c1ncnc3c1COC3)CC2` [Example 4.222, (5′S,7a′R)-1-(5,7-dihydrofuro[3,4-d]pyrimidin-4-yl)-5′-phenyltetrahydro-3′H-spiro[piperidine-4,2′-pyrrolo[2,1-b] [1,3]oxazol]-3′-one], the EC50 came to 57.3 nM.

In the case of `O=C1N2[C@@H](CC[C@H]2c2cccc(F)c2)OC12CCN(c1ccnc3c(F)cnn13)CC2` [Example 4.129, (5′S,7a′R)-5′-(3-fluorophenyl)-1-(3-fluoropyrazolo[1,5-a]pyrimidin-7-yl)tetrahydro-3′H-spiro[piperidine-4,2′-pyrrolo[2,1-b] [1,3]oxazol]-3′-one], the concentration giving a half-maximal response (EC50) was < 25 nM.

In the case of `O=C1N2[C@@H](CC[C@H]2c2ccccc2)OC12CCN(c1ncnc3c1CCO3)CC2` [Example 4.217, (5′S,7a′R)-1-(5,6-dihydrofuro[2,3-d]pyrimidin-4-yl)-5′-phenyltetrahydro-3′H-spiro[piperidine-4,2′-pyrrolo[2,1-b] [1,3]oxazol]-3′-one], the concentration giving a half-maximal response (EC50) was found to be 25.8 nM.

Take `COc1cccc(C(=O)N2CCC3(CC2)O[C@@H]2CC[C@@H](c4cc(F)cc(F)c4)N2C3=O)c1F` [Example 6.7, (5′S,7a′R)-5′-(3,5-difluorophenyl)-1-(2-fluoro-3-methoxy-benzene-1-carbonyl) tetrahydro-3′H-spiro [piperidine-4,2′-pyrrolo[2,1-b][1,3]oxazol]-3′-one]: the EC50 is < 25 nM.

Regarding `O=C(c1cc2ccccc2o1)N1CCC2(CC1)O[C@@H]1CC[C@@H](c3cc(F)cc(F)c3)N1C2=O` [Example 5.69], the concentration giving a half-maximal response (EC50) came out at 45.3 nM.

Consider `N#Cc1ccc(N2CCC3(CC2)O[C@@H]2CC[C@@H](c4ccccc4)N2C3=O)n2ncc(C(F)F)c12` [Example 4.179, 3-(difluoromethyl)-7-[(5′S,7a′R)-3′-oxo-5′-phenyltetrahydro-1H,3′H-spiro[piperidine-4,2′-pyrrolo[2,1-b] [1,3]oxazol]-1-yl]pyrazolo[1,5-a] pyridine-4-carbonitrile], for which the concentration for a half-maximal effect (EC50) is < 25 nM.

Consider `COc1cccc(C(=O)N2CCC3(CC2)O[C@@H]2CC[C@@H](c4ccccc4)N2C3=O)c1` [Example 6.155, (5′S,7a′R)-1-(3-methoxybenzene-1-carbonyl)-5′-phenyl-tetrahydro-3′H-spiro [piperidine-4,2′-pyrrolo[2,1-b][1,3]oxazol]-3′-one], for which the EC50 is < 25 nM.

For the compound `C#Cc1cc(C(=O)N2CCC3(CC2)O[C@@H]2CC[C@@H](c4cc(F)cc(F)c4)N2C3=O)ccn1` [Example 5.42, (5′S,7a′R)-5′-(3,5-difluoro-phenyl)-1-(2-ethynylpyri-dine-4-carbonyl)tetra-hydro-3′H-spiro[piperi-dine-4,2′-pyrrolo-[2,1-b] [1,3]oxazol]-3′-one], the EC50 stood at 39.2 nM.

For the compound `O=C1N2[C@@H](CC[C@H]2c2ccccc2F)OC12CCN(c1ccnc(Cl)c1)CC2` [Example 4.268, (5′S,7a′R)-1-(2-chloropyridin-4-yl)-5′-(2-fluorophenyl)tetrahydro-3′H-spiro[piperidine-4,2′-pyrrolo[2,1-b] [1,3]oxazol]-3′-one], the EC50 is < 25 nM.

For `O=C1N2[C@@H](CC[C@H]2c2ccccc2)OC12CCN(c1ccc(-c3nnc(C(F)(F)F)o3)cn1)CC2` [Example 4.165, (5′S,7a′R)-5′-phenyl-1-{5-[5-(trifluoromethyl)-1,3,4-oxadiazol-2-yl]pyridin-2-yl}tetrahydro-3′H-spiro[piperidine-4,2′-pyrrolo[2,1-b] [1,3]oxazol]-3′-one], the EC50 stood at 144 nM.

In the case of `O=C(c1cnccn1)N1CCC2(CC1)O[C@@H]1CC[C@@H](c3cc(F)cc(F)c3)N1C2=O` [Example 6.85, (5′S,7a′R)-5′-(3,5-difluorophenyl)-1-(pyrazine-2-carbon-yl)tetrahydro-3′H-spiro[piperidine-4,2′-pyrrolo[2,1-b][1,3]-oxazol]-3′-one], the EC50 was 36.9 nM.

Consider `N#Cc1ccc(F)c([C@@H]2CC[C@H]3OC4(CCN(c5ccnc6c(F)cnn56)CC4)C(=O)N32)c1` [Example 20.4, 4-fluoro-3-[(5′S,7a′R)-1-(3-fluoropyrazolo[1,5-a]pyrimidin-7-yl)-3′-oxotetrahydro-3′H-spiro[piperidine-4,2′-pyrrolo[2,1-b][1,3]oxazol]-5′-yl]benzonitrile], for which the concentration for a half-maximal effect (EC50) was < 25 nM.
